# Columns and labels:
# human TGR5 (h-TGR5) = target: T1, human TGR5 (h-TGR5) (Homo sapiens, UniProt Q8TDU6); assay: TGR5/CRE-Luciferiase Assay (HEK 293 hTGR5/CRE-Luc cells); assay type: cell-based; details: h-TGR5 CRE-Luc EC50, Table 1; read-out: CRE-Luc (EC50)
# T1 construct: expressed in transfected cells
# T1 sequence (Q8TDU6 1-330): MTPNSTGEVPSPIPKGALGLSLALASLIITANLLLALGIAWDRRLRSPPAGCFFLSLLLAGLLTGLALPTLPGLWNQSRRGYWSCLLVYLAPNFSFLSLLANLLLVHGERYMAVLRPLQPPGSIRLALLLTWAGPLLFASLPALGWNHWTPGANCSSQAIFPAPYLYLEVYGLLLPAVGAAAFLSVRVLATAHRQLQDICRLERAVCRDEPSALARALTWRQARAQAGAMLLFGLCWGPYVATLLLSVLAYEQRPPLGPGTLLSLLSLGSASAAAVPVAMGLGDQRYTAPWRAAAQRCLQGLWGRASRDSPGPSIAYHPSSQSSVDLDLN
# Summary of the method: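 HEK293 cells stably carrying hTGR5 and a CRE-luciferase reporter were exposed to serially diluted compounds (diluted in DMEM with 5% DMSO) for 6 h. Cells were then lysed in luciferase buffer, luminescence was read, and EC50 values were derived from dose-response curves.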
# h-TGR5 = target: T2, h-TGR5 (Homo sapiens, UniProt Q8TDU6); assay: TGR5 cAMP Assay using Cisbio cAMP Dynamic2 htrf kit (hTGR5CRE-luc HEK 293 cells); assay type: cell-based; details: h-TGR5 cAMP EC50, Table 1; read-out: cAMP (EC50)
# T2 construct: expressed in transfected cells
# T2 sequence (Q8TDU6 1-330): T1 sequence (Q8TDU6 1-330)
# Summary of the method: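 […], 4000 hTGR5CRE-luc HEK 293 cells per well, with 0.5 mM IBMX and d2-cAMP, were incubated 30 min at room temperature with compounds in 8-point half-log series, in quadruplicate.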
SMILES,EC50 (human TGR5 (h-TGR5)) [nM],EC50 (h-TGR5) [nM]
COc1cc(C(C)(C)c2cnc(SCc3ccc(S(=O)(=O)NC(=O)NN4CCCC4)cc3Cl)n2-c2cc(C)c(F)cn2)ccc1Cl [3-chloro-4-({[5-{1-[4-chloro-3-(methyloxy)phenyl]-1-methylethyl}-1-(5-fluoro-4-methylpyridin-2-yl)-1H-imidazol-2-yl]thio}methyl)-N-[(pyrrolidin-1-ylamino)carbonyl]benzenesulfonamide],100 to 1000,1000 to 10000
COc1cc(C(C)(C)c2cnc(S(=O)(=O)CC3CCN(S(C)(=O)=O)CC3)n2-c2ccc(F)cc2)ccc1Cl [4-({[5-{1-[4-chloro-3-(methyloxy)phenyl]-1-methylethyl}-1-(4-fluorophenyl)-1H-imidazol-2-yl]sulfonyl}methyl)-1-(methylsulfonyl)piperidine],100 to 1000,100 to 1000
COc1ccc(C(C)(C)c2cnc(SCc3ccc(S(N)(=O)=O)cc3Cl)n2-c2ccc(F)cc2)cc1Cl [3-chloro-4-({[5-{1-[3-chloro-4-(methyloxy)phenyl]-1-methylethyl}-1-(4-fluorophenyl)-1H-imidazol-2-yl]thio}methyl)benzenesulfonamide],< 100,< 100
"COc1cc(C(C)(C)c2cnc(SCc3c(F)cc(C(=O)NCCS(=O)(=O)O)cc3F)n2-c2ccc(F)cc2)ccc1Cl [2-({[4-({[5-{1-[4-chloro-3-(methyloxy)phenyl]-1-methylethyl}-1-(4-fluorophenyl)-1H-imidazol-2-yl]thio}methyl)-3,5-difluorophenyl]carbonyl}amino) ethanesulfonic acid]",< 100,< 100
"CC(C)(c1ccc(Cl)c(Cl)c1)c1cnc(SCc2cc(S(N)(=O)=O)c(Cl)cc2Cl)n1-c1ccc(F)cc1 [2,4-dichloro-5-[({5-[1-(3,4-dichlorophenyl)-1-methylethyl]-1-(4-fluorophenyl)-1H-imidazol-2-yl}thio)methyl]benzenesulfonamide]",< 100,100 to 1000
"CC(C)(c1ccc(S(C)(=O)=O)cc1)c1cnc(SCc2c(F)cc(C(=O)O)cc2F)n1-c1ccc(F)cc1 [3,5-difluoro-4-({[1-(4-fluorophenyl)-5-{1-methyl-1-[4-(methylsulfonyl)phenyl]ethyl}-1H-imidazol-2-yl]thio}methyl)benzoic acid]",< 100,< 100
"CC(C)(c1ccc2onc(N)c2c1)c1cnc(SCc2c(F)cc(C(=O)O)cc2F)n1-c1ccc(F)cc1 [4-[({5-[1-(3-amino-1,2-benzisoxazol-5-yl)-1-methylethyl]-1-(4-fluorophenyl)-1H-imidazol-2-yl}thio)methyl]-3,5-difluorobenzoic acid]",< 100,< 100
"COc1cc(C(C)(C)c2cnc(SCc3c(F)cc(CCCNC(=N)N)cc3F)n2-c2ccc(F)cc2)ccc1Cl [1-{3-[4-({[5-{1-[4-chloro-3-(methyloxy)phenyl]-1-methylethyl}-1-(4-fluorophenyl)-1H-imidazol-2-yl]thio}methyl)-3,5-difluorophenyl]propyl}guanidine]",< 100,< 100
"CC(C)(c1ccc(Cl)c(Cl)c1)c1cnc(SCc2c(F)cc(C(=O)O)cc2Cl)n1-c1ccc(F)cc1 [3-chloro-4-[({5-[1-(3,4-dichlorophenyl)-1-methylethyl]-1-(4-fluorophenyl)-1H-imidazol-2-yl}thio)methyl]-5-fluorobenzoic acid]",< 100,100 to 1000
"CC(C)(c1ccc(Cl)c(Cl)c1)c1cnc(CCc2ccc(S(N)(=O)=O)cc2Cl)n1-c1ccc(F)cc1 [3-chloro-4-(2-{5-[1-(3,4-dichlorophenyl)-1-methylethyl]-1-(4-fluorophenyl)-1H-imidazol-2-yl}ethyl)benzenesulfonamide]",100 to 1000,1000 to 10000
"CC(C)(c1ccc(Cl)c(Cl)c1)c1cnc(SCc2c(F)cccc2Cl)n1-c1ccc(F)cc1 [2-{[(2-chloro-6-fluorophenyl)methyl]thio}-5-[1-(3,4-dichlorophenyl)-1-methylethyl]-1-(4-fluorophenyl)-1H-imidazole]",< 100,100 to 1000
"COc1cc(C(C)(C)c2cnc(SCc3c(F)cc(C(=O)NO)cc3F)n2-c2ccc(F)cc2)ccc1Cl [4-({[5-{1-[4-chloro-3-(methyloxy)phenyl]-1-methylethyl}-1-(4-fluorophenyl)-1H-imidazol-2-yl]thio}methyl)-3,5-difluoro-N-hydroxybenzamide]",< 100,< 100
COc1cc(C(C)(C)c2cnc(COc3c(F)cc(C(=O)O)cc3Cl)n2-c2ccc(F)cc2)ccc1Cl [3-chloro-4-({[5-{1-[4-chloro-3-(methyloxy)phenyl]-1-methylethyl}-1-(4-fluorophenyl)-1H-imidazol-2-yl]methyl}oxy)-5-fluorobenzoic acid],100 to 1000,100 to 1000
"COc1cc(C(C)(C)c2cnc(SCc3c(F)cc(C(=O)O)cc3F)n2-c2ccc(F)cc2)ccc1Cl [4-({[5-{l-[4-chloro-3-(methyloxy)phenyl]-1-methylethyl}-1-(4-fluorophenyl)-1H-imidazol-2-yl]thio}methyl)-3,5-difluorobenzoic acid]",< 100,< 100
"COc1c(Cl)cc(C(C)(C)c2cnc(SCc3c(F)cccc3Cl)n2-c2ccc(F)cc2)cc1Cl [2-{[(2-chloro-6-fluorophenyl)methyl]thio}-5-{1-[3,5-dichloro-4-(methyloxy)phenyl]-1-methylethyl}-1-(4-fluorophenyl)-1H-imidazole]",< 100,< 100

# The next lines start with the values.
EC50 (human TGR5 (h-TGR5)) [nM],EC50 (h-TGR5) [nM],SMILES
1000 to 10000,1000 to 10000,"CC(C)(c1ccc(Cl)c(Cl)c1)c1cnc(CNC2CCN(S(C)(=O)=O)CC2)n1-c1ccc(F)cc1 [N-({5-[1-(3,4-dichlorophenyl)-1-methylethyl]-1-(4-fluorophenyl)-1H-imidazol-2-yl}methyl)-1-(methylsulfonyl)piperidin-4-amine]"
< 100,< 100,"COc1ccc(C(C)(C)c2c(Cl)nc(SCc3c(F)cccc3Cl)n2-c2ccc(F)cc2)cc1OC [5-{1-[3,4-bis(methyloxy)phenyl]-1-methylethyl}-4-chloro-2-{[(2-chloro-6-fluorophenyl)methyl]thio}-1-(4-fluorophenyl)-1H-imidazole]"
< 100,100 to 1000,"CC(C)(c1ccc(Cl)c(Cl)c1)c1cnc(SCc2c(F)cccc2F)n1-c1ccc(F)cc1 [5-[1-(3,4-dichlorophenyl)-1-methylethyl]-2-{[(2,6-difluorophenyl)methyl]thio}-1-(4-fluorophenyl)-1H-imidazole]"
100 to 1000,< 100,CCOC(=O)NS(=O)(=O)c1ccc(CSc2ncc(C(C)(C)c3ccc(S(N)(=O)=O)c(Cl)c3)n2-c2ccc(F)cc2)c(Cl)c1 [ethyl {[4-({[5-{1-[4-(aminosulfonyl)-3-chlorophenyl]-1-methylethyl}-1-(4-fluorophenyl)-1H-imidazol-2-yl]thio}methyl)-3-chlorophenyl]sulfonyl}carbamate]
< 100,< 100,CCOC(=O)NS(=O)(=O)c1ccc(CSc2ncc(C(C)(C)c3ccc(Cl)c(OC)c3)n2-c2ccc(F)cc2)c(F)c1 [ethyl {[4-({[5-{1-[4-chloro-3-(methyloxy)phenyl]-1-methylethyl}-1-(4-fluorophenyl)-1H-imidazol-2-yl]thio}methyl)-3-fluorophenyl]sulfonyl}carbamate]
< 100,< 100,CCOC(=O)NS(=O)(=O)c1ccc(CSc2ncc(C(C)(C)c3ccc(Cl)c(OC)c3)n2-c2ccc(F)cc2)cc1F [ethyl {[4-({[5-{1-[4-chloro-3-(methyloxy)phenyl]-1-methylethyl}-1-(4-fluorophenyl)-1H-imidazol-2-yl]thio}methyl)-2-fluorophenyl]sulfonyl}carbamate]
100 to 1000,100 to 1000,"COC(=O)c1cc(CSc2ncc(C(C)(C)c3ccc(Cl)c(Cl)c3)n2-c2ccc(F)c(OC)c2)ccc1C#CCNC(=N)N [methyl 2-(3-{[amino(imino)methyl]amino}prop-1-yn-1-yl)-5-[({5-[1-(3,4-dichlorophenyl)-1-methylethyl]-1-[4-fluoro-3-(methyloxy)phenyl]-1H-imidazol-2-yl}thio)methyl]benzoate]"
< 100,< 100,"COc1ccc(Cc2cnc(SCc3ccc(F)cc3Cl)n2-c2ccc(F)cc2)cc1OC [5-{[3,4-bis(methyloxy)phenyl]methyl}-2-{[(2-chloro-4-fluorophenyl)methyl]thio}-1-(4-fluorophenyl)-1H-imidazole]"
< 100,< 100,"COc1cc(-n2c(C(C)(C)c3ccc(S(N)(=O)=O)c(Cl)c3)cnc2SCc2c(F)cc(C(=O)NCCC(=O)O)cc2F)ccc1F [N-[(4-{[(5-{1-[4-(aminosulfonyl)-3-chlorophenyl]-1-methylethyl}-1-[4-fluoro-3-(methyloxy)phenyl]-1H-imidazol-2-yl)thio]methyl}-3,5-difluorophenyl)carbonyl]-beta-alanine]"
< 100,< 100,COc1ccc(C(C)(C)c2cnc(SCc3ccc(F)c(S(N)(=O)=O)c3)n2-c2ccc(F)cc2)cc1Cl [5-({[5-{1-[3-chloro-4-(methyloxy)phenyl]-1-methylethyl}-1-(4-fluorophenyl)-1H-imidazol-2-yl]thio}methyl)-2-fluorobenzenesulfonamide]
